{
  "source": "patent US20260014180A1",
  "about": "“BIOACTIVES AND THEIR USES” (AREPA IP LIMITED, priority 2022, published 2026)",
  "key": {"[1]": {"conditions": "in vivo; cited from earlier work"}, "[2]": {"target": "T1, MAO-B in platelets (Homo sapiens, UniProt P27338)", "T1 construct": "host or cells: platelets", "T1 sequence (P27338 1-520)": "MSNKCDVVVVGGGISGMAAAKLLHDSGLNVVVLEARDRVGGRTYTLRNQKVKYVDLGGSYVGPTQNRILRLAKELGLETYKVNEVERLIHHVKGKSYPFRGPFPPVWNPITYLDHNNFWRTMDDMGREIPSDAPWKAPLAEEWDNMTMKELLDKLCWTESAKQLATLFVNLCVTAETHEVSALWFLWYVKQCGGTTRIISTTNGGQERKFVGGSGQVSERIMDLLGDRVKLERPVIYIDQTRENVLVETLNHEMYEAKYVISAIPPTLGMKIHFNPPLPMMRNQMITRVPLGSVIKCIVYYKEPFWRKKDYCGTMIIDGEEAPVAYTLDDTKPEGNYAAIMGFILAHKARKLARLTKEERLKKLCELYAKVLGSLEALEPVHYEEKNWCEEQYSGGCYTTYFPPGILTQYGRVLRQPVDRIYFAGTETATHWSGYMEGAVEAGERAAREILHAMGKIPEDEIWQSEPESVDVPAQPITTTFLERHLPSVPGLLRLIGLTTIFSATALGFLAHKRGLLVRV", "conditions": "100 mg dose, cited from earlier work"}, "[3]": {"tested_on": "MAO", "conditions": "cited from earlier work"}, "[4]": {"conditions": "human, in vivo", "experimental": "Subjective feeling questionnaires and venous blood samples were collected at various timepoints over 8 h. […] Participants and trial coordinators were masked as to which intervention drink participants consumed. Before each trial day, participants excluded foods and supplements high in polyphenol compounds from their diet, for 24 h. They fasted for at least 10 h before consuming an Almond with Vanilla One Square Meal Bar® (Cookie Time Ltd) for breakfast, 2 h before the start of the trial. Participants arrived at the PFR Clinical Facility, where they were made comfortable. After 5 min at rest, they completed visual analogue scale (VAS) subjective feelings questionnaires and then donated a venous blood sample. After which, they were served their intervention beverage and were instructed to consume it as quickly as possible. […]\nThe plasma samples (350 μL) were spiked with malvidin 3-O-galactoside and further acidified with phosphoric acid prior to clean up on a SOLAμ™ Solid Phase Extraction plate. […] Quantifications of individual and total anthocyanins were performed using the internal standard ratio method using MultiQuant software, and all results are reported as cyanidin 3-O-glucoside equivalents. Quantification of sarmentosin was performed using an external reference standard supplied by Stephen Bloor (Callaghan Institute)."}, "[5]": {"target": "T2, MAO-B (Sus scrofa, UniProt Q6PLK3)", "T2 sequence (Q6PLK3 2-520)": "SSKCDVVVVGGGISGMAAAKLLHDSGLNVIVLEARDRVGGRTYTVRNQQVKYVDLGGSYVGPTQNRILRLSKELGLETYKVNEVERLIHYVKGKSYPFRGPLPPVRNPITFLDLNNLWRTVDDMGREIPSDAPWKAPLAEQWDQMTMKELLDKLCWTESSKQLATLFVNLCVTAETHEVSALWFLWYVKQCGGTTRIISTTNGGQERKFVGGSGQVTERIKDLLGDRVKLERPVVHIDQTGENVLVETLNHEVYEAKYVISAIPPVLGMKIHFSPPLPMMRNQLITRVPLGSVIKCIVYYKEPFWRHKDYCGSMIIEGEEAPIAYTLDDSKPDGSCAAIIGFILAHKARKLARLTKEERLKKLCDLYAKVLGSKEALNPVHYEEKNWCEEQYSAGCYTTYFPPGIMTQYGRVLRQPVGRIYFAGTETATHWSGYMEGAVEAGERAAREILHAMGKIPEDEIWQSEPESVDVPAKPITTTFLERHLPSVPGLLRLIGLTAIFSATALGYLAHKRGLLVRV", "assay": "S9 liver fraction kynuramine/4HQ LCMS assay, dilution series (Examples 5 and 6)", "format": "biochemical", "conditions": "read-out: 50% inhibition concentration (equivalent); porcine S9 fraction, kynuramine, 1 hr 37 C", "procedure": "We used a porcine S9 liver microsome fraction as the source of the MAO-A and MAO-B enzymes.\nThe S9 porcine fraction was mixed with a specific MAO substrate (kynuramine) and mixed with the test sample and buffer. After 1 hr at 37° C. the reaction was halted by cooling and addition of 2N NaOH and acetonitrile. The centrifuged sample was then analysed using LCMS and the level of 4-quinolol (4HQ) product measured.\nThe S9 liver microsome fraction containing the crude enzyme mix was from a frozen bulk sample derived from porcine liver.\nSamples were prepared in a 6-well plate (deep well format with 1.1 ml strip tubes). The assay was performed by diluting the crude S9 fraction with buffer (PBS, PH 7.4, diluted 1 in 5, 150 μl) and adding the test sample dissolved in buffer (75 ul). An aliquot of kynuramine was added (10 μl of 1 mg/ml) and the plate was placed in a 37 C water bath for 1 hr. The plate was cooled in ice water before addition of 20 μl 2N NaOH followed by 250 μl acetonitrile. The individual strip tubes were centrifuged, and samples taken from each for LCMS analysis.\nThe LCMS analysis was performed using a Cyano HPLC column eluted with 0.1% formic in water and acetonitrile. The LC run was isocratic mode (40% Acetonitrile) and the relative levels of 4 hydroxy quinoline (4HQ) and kynuramine determined from peak areas. […] Kynuramine is converted to 4HQ by the MAO-B enzyme. […]"}, "[6]": {"target": "T3, MAO-A (Homo sapiens, UniProt P21397)", "T3 construct": "purchased Sigma-Aldrich MAK295/296", "T3 sequence (P21397 1-527)": "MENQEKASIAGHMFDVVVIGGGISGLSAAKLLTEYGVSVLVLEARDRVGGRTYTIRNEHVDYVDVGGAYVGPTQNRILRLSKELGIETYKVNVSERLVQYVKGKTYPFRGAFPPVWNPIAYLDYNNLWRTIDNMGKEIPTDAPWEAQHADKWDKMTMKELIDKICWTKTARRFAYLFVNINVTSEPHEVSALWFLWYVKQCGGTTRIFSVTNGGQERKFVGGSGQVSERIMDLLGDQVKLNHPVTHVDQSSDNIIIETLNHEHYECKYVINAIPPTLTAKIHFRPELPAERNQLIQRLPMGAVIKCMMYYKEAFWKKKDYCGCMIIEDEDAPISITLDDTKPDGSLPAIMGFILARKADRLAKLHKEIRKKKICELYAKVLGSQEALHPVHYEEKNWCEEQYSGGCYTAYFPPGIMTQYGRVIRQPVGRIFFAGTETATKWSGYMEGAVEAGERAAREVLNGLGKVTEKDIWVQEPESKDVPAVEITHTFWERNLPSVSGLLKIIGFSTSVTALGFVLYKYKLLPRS", "conditions": "in vivo; cited from earlier work"}},
  "note": "pIC50: −log10 of the molar value.",
  "data": [
    {"smiles": "O=C(NCCN1CCOCC1)c1ccc(Cl)cc1", "note": "[Moclobemide]", "values": [
      {"measurement": "elimination half-life", "setting": "[1]", "value": "1 to 3", "unit": "h"},
      {"measurement": "time to reach peak (plasma) concentrations", "setting": "[1]", "value": "approximately 1 hours"}
    ]},
    {"smiles": "NCCNC(=O)c1ccc(Cl)cn1", "note": "[lazabemide]", "values": [
      {"measurement": "inhibition of MAO-B in platelets", "setting": "[2]; 30 min post dose", "value": "> 90", "unit": "%"},
      {"measurement": "time at which maximal inhibition subsides", "setting": "[2]; post dose", "value": 16, "unit": "h"},
      {"measurement": "time of full restoration of enzyme activity", "setting": "[2]; post dose", "value": 48, "unit": "h"}
    ]},
    {"smiles": "O=c1c(O)c(-c2ccc(O)c(O)c2)oc2cc(O)cc(O)c12", "note": "[quercetin]", "values": [
      {"measurement": "MAO inhibitory activity by HPLC method", "setting": "[3]", "value": "not active"}
    ]},
    {"smiles": "N#C/C(=C\\CO[C@@H]1O[C@H](CO)[C@@H](O)[C@H](O)[C@H]1O)CO", "note": "[sarmentosin, 4-(beta-D-glucopyranosyloxy)-2-(hydroxymethyl-2-butenenitrile)]", "values": [
      {"measurement": "time of peak concentrations of sarmentosin in plasma", "setting": "[4]", "value": 120, "unit": "min"},
      {"measurement": "pIC50", "setting": "[5]", "value": "~5.84"}
    ]},
    {"smiles": "Cc1cccc(N2CC(CO)OC2=O)c1", "note": "(stereo not drawn) [toloxatone]", "values": [
      {"measurement": "duration of MAO-A inhibition", "setting": "[6]", "value": "only six hours"}
    ]}
  ]
}
